Measured values taken from patent publication US10112937B2, “P2X7 modulators and methods of use” (Janssen Pharmaceutica NV, priority 2013, dated 2018).

Legend:
Type in all cases: cell-based
[1] = target: T1, human P2X7 (Homo sapiens (Human), UniProt Q99572); experiment: P2X7 antagonism in human PBMCs (IL-1β release after LPS + Bz-ATP, ELISA); settings: for PBMC 1 μM (% control): test compound 1 μM
Description: P2X7 Antagonism in Human Peripheral Blood Mononuclear Cells (PBMCs) and Human Whole Blood.
Human blood was collected using a blood donor program. PBMCs were isolated from blood using a Ficoll density gradient technique. Briefly, blood was laid on Ficoll solution and centrifuged at RT for 20 minutes at 2000 rpm. The buffy layer (between red blood cells and plasma) was carefully collected by aspiration, washed with PBS and centrifuged again at 1500 rpm for 15 minutes. The resulting cell pellet was washed and plated on 96 well-plates for experiments. For the Human Whole Blood experiments, 150 μl of human blood was platted on 96 well-plates. Lipopolysaccharide (LPS) (30 ng/ml) was added to each well and incubated for 1 hour. Test compounds were then added and incubated for 30 minutes. The P2X7 agonist, 2′(3′)-O-(4-benzoylbenzoyl) adenosine 5′ triphosphate (Bz-ATP) was then added at a final concentration of 0.5 mM (PBMC) or 1 mM (blood). Cells were incubated for an additional 1.5 hours. At that point, supernatant was collected and stored for IL-1β assay using manufacturer's protocol for enzyme-linked immunosorbent assay (ELISA). Data was expressed as percent control, where control is defined as the difference in IL-1β release in LPS+Bz-ATP samples and LPS only samples. Data was plotted as response (% control) versus concentration to generate IC50 values. […] Data are analyzed and graphed on Graphpad Prism 5. For analysis, each concentration point is averaged from triplicate values and the averaged values are plotted on Graphpad Prism.

[2] = target: T1, human P2X7; experiment: Ca2+ flux (FLIPR) in 1321N1 cells expressing recombinant human P2X7; settings: 1321N1 cells, recombinant human P2X7, 250 μM BzATP;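 also: cells loaded with Calcium-4 dye, preincubated with test compound for 30 min, fluorescence change read 180 s after agonist addition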
[3] = target: rat P2X7 (Rattus norvegicus (Rat), UniProt Q64663); experiment: Ca2+ flux (FLIPR) in 1321N1 cells expressing recombinant rat P2X7;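 also: Calcium-4 dye fluorescence change read 180 s after agonist addition, with cells preincubated 30 min with compound and dye in 96-well plates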
rat P2X7, sequence (Q64663 whole entry): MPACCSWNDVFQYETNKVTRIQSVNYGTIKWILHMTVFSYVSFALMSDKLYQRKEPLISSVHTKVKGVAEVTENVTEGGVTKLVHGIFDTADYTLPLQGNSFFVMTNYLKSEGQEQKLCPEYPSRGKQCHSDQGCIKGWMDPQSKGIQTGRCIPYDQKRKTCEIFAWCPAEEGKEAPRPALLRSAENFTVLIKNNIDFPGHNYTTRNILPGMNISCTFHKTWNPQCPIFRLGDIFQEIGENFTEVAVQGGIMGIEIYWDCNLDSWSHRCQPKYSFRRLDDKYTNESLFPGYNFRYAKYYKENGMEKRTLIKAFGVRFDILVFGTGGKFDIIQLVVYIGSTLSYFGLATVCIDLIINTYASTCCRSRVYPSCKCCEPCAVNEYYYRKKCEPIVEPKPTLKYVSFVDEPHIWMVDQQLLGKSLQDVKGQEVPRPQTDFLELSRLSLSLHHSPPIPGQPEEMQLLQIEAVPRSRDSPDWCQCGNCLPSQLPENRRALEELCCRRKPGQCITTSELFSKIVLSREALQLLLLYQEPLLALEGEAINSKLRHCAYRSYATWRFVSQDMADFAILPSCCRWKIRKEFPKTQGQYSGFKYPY
Description: P2X7 Antagonism in Recombinant Human P2X7 Cells or Recombinant Rat P2X7 Cells: (a) Ca^2+ Flux and (b) Radioligand Binding
1321N1 cells expressing the recombinant human or rat P2X7 channel was cultured in HyQ DME/(HyClone/Dulbecco's Modified Eagle Medium) high glucose supplemented with 10% Fetal Bovine Serum (FBS) and appropriate selection marker. Cells were seeded at a density of 25000 cells/well (96-well clear bottom black walled plates) in 100 μl volume/well. On the day of the experiment, cell plates were washed with assay buffer, containing (in mM): 130 NaCl, 2 KCl, 1 CaCl2, 1 MgCl2, 10 HEPES, 5 glucose; pH 7.40 and 300 mOs. After the wash, cells were loaded with the Calcium-4 dye (Molecular Device) and incubated in the dark for 60 minutes. Test compounds were prepared at 250× the test concentration in neat DMSO. Intermediate 96-well compound plates were prepared by transferring 1.2 μL of the compound into 300 μL of assay buffer. A further 3× dilution occurred when transferring 50 μL/well of the compound plate to 100 μL/well in the cell plate. Cells were incubated with test compounds and dye for 30 minutes. […] The fluorescence change was measured 180 seconds after adding the agonist.

[4] = human PBMCs, test compound 10 μM
[5] = 1321N1 cells, recombinant rat P2X7, 250 μM BzATP

T1 sequence (Q99572 whole entry): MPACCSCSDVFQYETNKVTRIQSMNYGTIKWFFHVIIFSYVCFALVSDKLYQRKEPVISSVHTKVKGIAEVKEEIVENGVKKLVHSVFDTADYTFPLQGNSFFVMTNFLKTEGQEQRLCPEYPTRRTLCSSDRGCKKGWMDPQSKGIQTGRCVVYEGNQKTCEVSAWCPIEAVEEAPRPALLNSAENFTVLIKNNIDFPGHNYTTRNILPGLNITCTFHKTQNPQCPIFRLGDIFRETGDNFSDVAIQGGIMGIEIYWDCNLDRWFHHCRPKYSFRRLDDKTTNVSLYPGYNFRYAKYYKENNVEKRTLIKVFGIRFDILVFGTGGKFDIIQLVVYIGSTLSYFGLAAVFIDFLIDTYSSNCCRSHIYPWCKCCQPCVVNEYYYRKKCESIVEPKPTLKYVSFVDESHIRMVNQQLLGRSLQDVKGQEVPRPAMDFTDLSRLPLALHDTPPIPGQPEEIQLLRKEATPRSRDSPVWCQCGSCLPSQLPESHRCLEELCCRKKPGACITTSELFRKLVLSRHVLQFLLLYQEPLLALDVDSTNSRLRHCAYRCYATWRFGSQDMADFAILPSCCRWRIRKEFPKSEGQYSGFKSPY

Row | Compound | PBMC 10 μM (% control) [1, 4] | IC50 [2] | IC50 [3, 5] | other results
1 | CC1c2ncn(-c3ccc(F)cn3)c2CCN1C(=O)c1ccc(F)c(Cl)c1Cl (stereo not drawn) [Example 261, (2,3-dichloro-4-fluorophenyl)(1-(5-fluoropyridin-2-yl)-4-methyl-6,7-dihydro-1H-imidazo[4,5-c]pyridin-5(4H)-yl)methanone] | −3.1 % control | 29.3 nM |  | 
2 | CC1c2ncn(-c3ccc(F)cn3)c2CCN1C(=O)c1ccc(F)cc1Cl (stereo not drawn) [Example 256, (2-chloro-4-fluorophenyl)(1-(5-fluoropyridin-2-yl)-4-methyl-6,7-dihydro-1H-imidazo[4,5-c]pyridin-5(4H)-yl)methanone] | 7.1 % control | 4370 nM |  | 
3 | O=C(c1cccc(C(F)(F)F)c1F)N1CCc2c(ncn2-c2ccc(F)cn2)C1 [Example 314, (2-fluoro-3-(trifluoromethyl)phenyl)(1-(5-fluoropyridin-2-yl)-6,7-dihydro-1H-imidazo[4,5-c]pyridin-5(4H)-yl)methanone] |  | 3540 nM |  | 
4 | CCC1c2ncn(-c3cnccn3)c2CCN1C(=O)c1cccc(C(F)(F)F)c1Cl (stereo not drawn) [Example 15, (2-Chloro-3-(trifluoromethyl)phenyl)(4-ethyl-1-(pyrazin-2-yl)-6,7-dihydro-1H-imidazo[4,5-c]pyridin-5(4H)-yl)methanone] |  | 81.4 nM |  | PBMC 1 μM (% control) ([1]; human PBMCs): 9.1 % control
5 | Cc1cc(-n2nnc3c2CCN(C(=O)c2cccc(C(F)(F)F)c2Cl)C3C)ncc1F (stereo not drawn) [Example 381, (2-chloro-3-(trifluoromethyl)phenyl)(1-(5-fluoro-4-methylpyridin-2-yl)-4-methyl-6,7-dihydro-1H-[1,2,3]triazolo[4,5-c]pyridin-5(4H)-yl)methanone] | 4.1 % control |  | 234 nM | 
6 | Cc1ccnc(-n2nnc3c2CCN(C(=O)c2cccc(OC(F)(F)F)c2)C3C)c1 (stereo not drawn) [Example 375, (4-methyl-1-(4-methylpyridin-2-yl)-6,7-dihydro-1H-[1,2,3]triazolo[4,5-c]pyridin-5(4H)-yl)(3-(trifluoromethoxy)phenyl)methanone] | 63.3 % control | > 10000 nM |  | 
7 | CC1c2n[nH]c(-c3cnccn3)c2CCN1C(=O)c1cccc(C(F)(F)F)c1Cl (stereo not drawn) [Example 438, (2-chloro-3-(trifluoromethyl)phenyl)(7-methyl-3-(pyrazin-2-yl)-4,5-dihydro-2H-pyrazolo[3,4-c]pyridin-6(7H)-yl)methanone] |  |  |  | IC50 ([3]; Ca2+ flux, 250 μM BzATP, rat P2X7 1321N1 cells): 482 nM; PBMC 10 μM (% control) ([1]; 10 μM test compound, human PBMCs, LPS + Bz-ATP): −10.8 % control
8 | CC1c2ncn(-c3ccc(F)cn3)c2CCN1C(=O)c1cccc(C(F)(F)F)c1F (stereo not drawn) [Example 262, (2-fluoro-3-(trifluoromethyl)phenyl)(1-(5-fluoropyridin-2-yl)-4-methyl-6,7-dihydro-1H-imidazo[4,5-c]pyridin-5(4H)-yl)methanone] | −3.6 % control |  | 3470 nM | 
9 | Cc1ccnc(-n2nnc3c2CCN(C(=O)c2ccnc(C(F)(F)F)c2F)[C@@H]3C)c1 (single isomer, unassigned) [Example 356, (R*)-(3-fluoro-2-(trifluoromethyl)pyridin-4-yl)(4-methyl-1-(4-methylpyridin-2-yl)-6,7-dihydro-1H-[1,2,3]triazolo[4,5-c]pyridin-5(4H)-yl)methanone] | −5.9 % control |  | 120 nM | 
10 | Cc1cc(-n2nnc3c2CCN(C(=O)c2cccc(C(F)(F)F)c2Cl)C3C)ncn1 (stereo not drawn) [Example 402, (2-chloro-3-(trifluoromethyl)phenyl)(4-methyl-1-(6-methylpyrimidin-4-yl)-6,7-dihydro-1H-[1,2,3]triazolo[4,5-c]pyridin-5(4H)-yl)methanone] | 0.3 % control | 879 nM |  | 
11 | CCOC(=O)C1c2ncn(-c3ccccn3)c2CCN1C(=O)c1cccc(Cl)c1Cl (stereo not drawn) [Example 25, Ethyl 5-(2,3-dichlorobenzoyl)-1-(pyridin-2-yl)-4,5,6,7-tetrahydro-1H-imidazo[4,5-c]pyridine-4-carboxylate] |  | 142 nM |  | PBMC 1 μM (% control) ([1]; human PBMCs): 9.7 % control
12 | O=C(OCC1c2ncn(-c3ccccc3)c2CCN1C(=O)c1cccc(C(F)(F)F)c1Cl)c1cccc(C(F)(F)F)c1Cl (stereo not drawn) [Example 36, (5-{[2-Chloro-3-(trifluoromethyl)phenyl]carbonyl}-1-phenyl-4,5,6,7-tetrahydro-1H-imidazo[4,5-c]pyridin-4-yl)methyl 2-chloro-3-(trifluoromethyl)benzoate] |  | 3390 nM |  | 
13 | Cc1c(C(=O)N2CCc3c(ncn3-c3ccc(F)cn3)C2)cccc1C(F)(F)F [Example 312, (1-(5-fluoropyridin-2-yl)-6,7-dihydro-1H-imidazo[4,5-c]pyridin-5(4H)-yl)(2-methyl-3-(trifluoromethyl)phenyl)methanone] | 9.5 % control | 114 nM |  | 
14 | Cc1ccnc(-n2nnc3c2CCN(C(=O)c2cccc(Cl)c2C)C3C)c1 (stereo not drawn) [Example 388, (3-chloro-2-methylphenyl)(4-methyl-1-(4-methylpyridin-2-yl)-6,7-dihydro-1H-[1,2,3]triazolo[4,5-c]pyridin-5(4H)-yl)methanone] | −18.8 % control |  | 2280 nM | 
15 | CC1c2ncn(-c3ncccc3F)c2CCN1C(=O)c1cccc(C(F)(F)F)c1Cl (stereo not drawn) [Example 21, (2-Chloro-3-(trifluoromethyl)phenyl)(1-(3-fluoropyridin-2-yl)-4-methyl-6,7-dihydro-1H-imidazo[4,5-c]pyridin-5(4H)-yl)methanone] | 1.6 % control | 90 nM |  | 
16 | Cc1cc(-n2nnc3c2CCN(C(=O)c2cccc(C(F)(F)F)c2Cl)[C@@H]3C)ncc1F (single isomer, unassigned) [Example 382, (R*)-(2-chloro-3-(trifluoromethyl)phenyl)(1-(5-fluoro-4-methylpyridin-2-yl)-4-methyl-6,7-dihydro-1H-[1,2,3]triazolo[4,5-c]pyridin-5(4H)-yl)methanone] | −2.7 % control |  | 56.6 nM | 
17 | O=C(c1cccc(C(F)(F)F)c1Cl)N1CCc2c(nnn2-c2ncc(F)cn2)C1 [Example 64, 5-{[2-Chloro-3-(trifluoromethyl)phenyl]carbonyl}-1-(5-fluoropyrimidin-2-yl)-4,5,6,7-tetrahydro-1H-[1,2,3]triazolo[4,5-c]pyridine] | −9.2 % control | 22.8 nM |  | 
18 | O=C(c1ccc(Cl)cc1Cl)N1CCc2c(ncn2-c2ccc(F)cn2)C1 [Example 313, (2,4-dichlorophenyl)(1-(5-fluoropyridin-2-yl)-6,7-dihydro-1H-imidazo[4,5-c]pyridin-5(4H)-yl)methanone] | −5.4 % control | 880 nM |  | 
19 | Cc1c(C(=O)N2CCc3c(ncn3-c3ccc(F)cn3)C2C)cccc1C(F)(F)F (stereo not drawn) [Example 263, (1-(5-fluoropyridin-2-yl)-4-methyl-6,7-dihydro-1H-imidazo[4,5-c]pyridin-5(4H)-yl)(2-methyl-3-(trifluoromethyl)phenyl)methanone] | −1.6 % control | 17.5 nM |  | 
20 | Cc1nc(-n2nnc3c2CCN(C(=O)c2cccc(C(F)(F)F)c2Cl)C3C)ncc1F (single isomer, unassigned) [Example 306, (S*)-(2-chloro-3-(trifluoromethyl)phenyl)(1-(5-fluoro-4-methylpyrimidin-2-yl)-4-methyl-6,7-dihydro-1H-[1,2,3]triazolo[4,5-c]pyridin-5(4H)-yl)methanone] | 2.5 % control |  | 5980 nM | IC50 ([3]; 250 μM BzATP, Calcium-4 dye): 5980 nM; PBMC 10 μM (% control) ([1]; test compound 10 μM, LPS 30 ng/ml + 0.5 mM Bz-ATP): 2.5 % control
21 | Cc1cccc(-n2nnc3c2CCN(C(=O)c2cccc(C(F)(F)F)c2F)[C@H]3C)n1 (single isomer, unassigned) [Example 387, (S*)-(2-fluoro-3-(trifluoromethyl)phenyl)(4-methyl-1-(6-methylpyridin-2-yl)-6,7-dihydro-1H-[1,2,3]triazolo[4,5-c]pyridin-5(4H)-yl)methanone] | 8.4 % control |  | 161 nM | 
22 | O=C(c1cccc(C(F)(F)F)c1Cl)N1CCc2c(ncn2-c2ccccn2)C1CF (stereo not drawn) [Example 32, (2-Chloro-3-(trifluoromethyl)phenyl)(4-(fluoromethyl)-1-(pyridin-2-yl)-6,7-dihydro-1H-imidazo[4,5-c]pyridin-5(4H)-yl)methanone] | 1.9 % control |  | 47.5 nM | 
23 | Cc1ccnc(-n2nnc3c2CCN(C(=O)c2ccnc(C(F)(F)F)c2F)C3C)c1 (stereo not drawn) [Example 355, (3-fluoro-2-(trifluoromethyl)pyridin-4-yl)(4-methyl-1-(4-methylpyridin-2-yl)-6,7-dihydro-1H-[1,2,3]triazolo[4,5-c]pyridin-5(4H)-yl)methanone] | −2.0 % control |  | 394 nM | 
24 | O=C(c1cccc(C(F)(F)F)c1Cl)N1CCc2c(ncn2-c2ccccn2)C1 [Example 1, (2-Chloro-3-(trifluoromethyl)phenyl)(1-(pyridin-2-yl)-6,7-dihydro-1H-imidazo[4,5-c]pyridin-5(4H)-yl)methanone] |  | 4.1 nM |  | 
25 | CC1(C)c2ncn(-c3ccccc3)c2CCN1C(=O)c1cccc(C(F)(F)F)c1Cl [Example 53, 5-{[2-Chloro-3-(trifluoromethyl)phenyl]carbonyl}-4,4-dimethyl-1-phenyl-4,5,6,7-tetrahydro-1H-imidazo[4,5-c]pyridine] |  |  | 3150 nM | PBMC 1 μM (% control) ([1]; human PBMCs): 99.0 % control
26 | Cc1cccc(-n2nnc3c2CCN(C(=O)c2cccc(C(F)(F)F)c2F)C3C)n1 (stereo not drawn) [Example 385, (2-fluoro-3-(trifluoromethyl)phenyl)(4-methyl-1-(6-methylpyridin-2-yl)-6,7-dihydro-1H-[1,2,3]triazolo[4,5-c]pyridin-5(4H)-yl)methanone] | 12.4 % control |  | 57.8 nM | 
